Literature values, collected in patent US9714271B2 (ContraVir Pharmaceuticals, Inc., priority 2010, dated 2017).

Molecular target: CyP-A (Homo sapiens, UniProt P62937)
Sequence (P62937 whole entry): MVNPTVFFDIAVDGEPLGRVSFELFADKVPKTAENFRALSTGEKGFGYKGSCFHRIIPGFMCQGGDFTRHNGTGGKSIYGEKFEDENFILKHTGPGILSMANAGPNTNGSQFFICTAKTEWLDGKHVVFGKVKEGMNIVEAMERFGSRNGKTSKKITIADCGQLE

binding affinity for CyP-A | Structure (SMILES)
retains binding affinity for CyP-A | C/C=C/C[C@@H](C)[C@@H](O)[C@H]1C(=O)N[C@@H](CC)C(=O)N(C)[C@H](C)C(=O)N(CC)[C@@H](C(C)C)C(=O)N[C@@H](C(C)C)C(=O)N(C)[C@@H](CC(C)C)C(=O)N[C@@H](C)C(=O)N[C@H](C)C(=O)N(C)[C@@H](CC(C)C)C(=O)N(C)[C@@H](CC(C)C)C(=O)N(C)[C@@H](C(C)C)C(=O)N1C [DEBIO 025, MeAla^3EtVal^4-Cyclosporin]
retains binding affinity for CyP-A | C/C=C/C[C@@H](C)[C@@H](O)[C@H]1C(=O)N[C@@H](CC)C(=O)N(C)[C@H](SCCN(C)C)C(=O)N(C)[C@@H](CC(C)(C)O)C(=O)N[C@@H](C(C)C)C(=O)N(C)[C@@H](CC(C)C)C(=O)N[C@@H](C)C(=O)N[C@H](C)C(=O)N(C)[C@@H](CC(C)C)C(=O)N(C)[C@@H](CC(C)C)C(=O)N(C)[C@@H](C(C)C)C(=O)N1C [SCY-635, DimethylaminoethylthioSar^3-hydroxyLeu^4-Cyclosporin]

Structure (SMILES) | binding affinity for CyP-A
C/C=C/C[C@@H](C)[C@@H](O)[C@H]1C(=O)N[C@@H](CC)C(=O)N(C)CC(=O)N(C)[C@@H]([C@@H](C)CC)C(=O)N[C@@H](C(C)C)C(=O)N(C)[C@@H](CC(C)C)C(=O)N[C@@H](C)C(=O)N[C@H](C)C(=O)N(C)[C@@H](CC(C)C)C(=O)N(C)[C@@H](CC(C)C)C(=O)N(C)[C@@H](C(C)C)C(=O)N1C [NIM 811, Melle^4-Cyclosporine] | retains binding affinity for CyP-A
